Test results: PubChem BioAssay (NCI)
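Abbreviation: GI50, concentration required for 50% inhibition of growth. TGI marks complete inhibition of growth.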

Legend:
Experiment in all cases: growth of human tumour cells (NCI), 384-well format
[1] = tested on: OVCAR-3 ovarian
[2] = tested on: RPMI-8226 leukemia
[3] = tested on: SF-295 CNS
[4] = tested on: U251 glioblastoma
[5] = tested on: A498 renal
[6] = tested on: TK-10 renal
[7] = tested on: NCI-H226 lung
[8] = tested on: PC-3 prostate
[9] = tested on: HCT-116 colon
[10] = tested on: HCT-15 colon
[11] = tested on: NCI-H322M lung
[12] = tested on: KM12 colon
[13] = tested on: MDA-MB-435 melanoma
[14] = tested on: MALME-3M melanoma
[15] = tested on: UO-31 renal
[16] = tested on: NCI/ADR-RES ovarian
[17] = tested on: M14 melanoma
[18] = tested on: NCI-H460 NSCLC
[19] = tested on: UACC-257 melanoma
[20] = tested on: ACHN renal
[21] = tested on: EKVX NSCLC
[22] = tested on: UACC-62 melanoma
[23] = tested on: BT-549 breast
[24] = tested on: DU-145 prostate
[25] = tested on: HOP-92 NSCLC
[26] = tested on: HOP-62 NSCLC
[27] = tested on: SNB-75 CNS
[28] = tested on: SF-268 CNS
[29] = tested on: HS 578T breast
[30] = tested on: MOLT-4 leukemia
[31] = tested on: RXF 393 renal
[32] = tested on: OVCAR-8 ovarian
[33] = tested on: SK-MEL-28 melanoma
[34] = tested on: SK-OV-3 ovarian
[35] = tested on: SNB-19 CNS
[36] = tested on: LOX IMVI melanoma
[37] = tested on: 786-0 renal
[38] = tested on: K-562 leukemia
[39] = tested on: MDA-MB-468 breast
[40] = tested on: CAKI-1 renal
[41] = tested on: OVCAR-4 ovarian
[42] = tested on: IGROV1 ovarian
[43] = tested on: SW-620 colon
[44] = tested on: HT29 colon
[45] = tested on: CCRF-CEM leukemia
[46] = tested on: T-47D breast
[47] = tested on: SK-MEL-5 melanoma
[48] = tested on: HL-60(TB) leukemia
[49] = tested on: MDA-MB-231 breast
[50] = tested on: A549 NSCLC
[51] = tested on: SN12C renal
[52] = tested on: NCI-H522 lung
[53] = tested on: OVCAR-5 ovarian
[54] = tested on: SF-539 CNS
[55] = tested on: HCC-2998 colon
[56] = tested on: NCI-H23 lung
[57] = tested on: MCF7 breast
[58] = tested on: COLO 205 colon

Compound: C[C@@H](NC(=O)c1ncnc(N)c1Cl)c1ncc(C(=O)Nc2cc(C(F)(F)F)c(Cl)cn2)s1
- GI50 [1]: 16.2 µM
- TGI [1]: 34.1 µM
- GI50 [2]: 13.9 µM
- TGI [2]: 27.1 µM
- GI50 [3]: 17.7 µM
- TGI [3]: 32.8 µM
- GI50 [4]: 18 µM
- TGI [4]: 39.1 µM
- GI50 [5]: 16.1 µM
- TGI [5]: 39.7 µM
- GI50 [6]: 18.8 µM
- TGI [6]: 36.4 µM
- GI50 [7]: 15.8 µM
- TGI [7]: 40.4 µM
- GI50 [8]: 20.4 µM
- TGI [8]: 35 µM
- GI50 [9]: 2.24 µM
- TGI [9]: 13.6 µM
- GI50 [10]: 11.2 µM
- TGI [10]: 25.6 µM
- GI50 [11]: 13 µM
- TGI [11]: 28.1 µM
- GI50 [12]: 13.1 µM
- TGI [12]: 31.3 µM
- GI50 [13]: 1.37 µM
- TGI [13]: 15.9 µM
- GI50 [14]: 0.0475 µM
- TGI [14]: 0.289 µM
- GI50 [15]: 11.5 µM
- TGI [15]: 32.5 µM
- GI50 [16]: 16.9 µM
- TGI [16]: 32 µM
- GI50 [17]: 0.157 µM
- TGI [17]: 1.16 µM
- GI50 [18]: 9.03 µM
- TGI [18]: 21.7 µM
- GI50 [19]: 0.406 µM
- TGI [19]: 2.48 µM
- GI50 [20]: 13.7 µM
- TGI [20]: 37.8 µM
- GI50 [21]: 14.8 µM
- TGI [21]: 29.1 µM
- GI50 [22]: 0.154 µM
- TGI [22]: 1.41 µM
- GI50 [23]: 16.2 µM
- TGI [23]: 30.8 µM
- GI50 [24]: 18 µM
- TGI [24]: 35.2 µM
- GI50 [25]: 4.23 µM
- TGI [25]: 14.9 µM
- GI50 [26]: 12 µM
- TGI [26]: 24.8 µM
- GI50 [27]: 23.7 µM
- TGI [27]: 48.1 µM
- GI50 [28]: 12.3 µM
- TGI [28]: 24.9 µM
- GI50 [29]: 15 µM
- TGI [29]: 28.4 µM
- GI50 [30]: 11.1 µM
- TGI [30]: 23.2 µM
- GI50 [31]: 18.7 µM
- TGI [31]: 40 µM
- GI50 [32]: 14.4 µM
- TGI [32]: 27.7 µM
- GI50 [33]: 0.419 µM
- TGI [33]: 2.67 µM
- GI50 [34]: 20.5 µM
- TGI [34]: 42.6 µM
- GI50 [35]: 29.4 µM
- TGI [35]: 91.4 µM
- GI50 [36]: 1.42 µM
- TGI [36]: 13.7 µM
- GI50 [37]: 16.8 µM
- TGI [37]: 32.9 µM
- GI50 [38]: 0.281 µM
- TGI [38]: 1.2 µM
- GI50 [39]: 22 µM
- TGI [39]: 39 µM
- GI50 [40]: 11.6 µM
- TGI [40]: 26.5 µM
- GI50 [41]: 20.6 µM
- TGI [41]: 38 µM
- GI50 [42]: 5.42 µM
- TGI [42]: 20.8 µM
- GI50 [43]: 10.8 µM
- TGI [43]: 26.6 µM
- GI50 [44]: 0.555 µM
- TGI [44]: 15.4 µM
- GI50 [45]: 12.8 µM
- TGI [45]: 25.5 µM
- GI50 [46]: 10.2 µM
- TGI [46]: 22.7 µM
- GI50 [47]: 1.35 µM
- TGI [47]: 15.2 µM
- GI50 [48]: 0.717 µM
- TGI [48]: 10.8 µM
- GI50 [49]: 2.11 µM
- TGI [49]: 20.3 µM
- GI50 [50]: 10.3 µM
- TGI [50]: 27.8 µM
- GI50 [51]: 15.3 µM
- TGI [51]: 40.6 µM
- GI50 [52]: 13.7 µM
- TGI [52]: 26.6 µM
- GI50 [53]: 5.67 µM
- TGI [53]: 29.6 µM
- GI50 [54]: 17.4 µM
- TGI [54]: 35.9 µM
- GI50 [55]: 4.74 µM
- TGI [55]: 18.5 µM
- GI50 [56]: 1.88 µM
- TGI [56]: 8.75 µM
- GI50 [57]: 14.5 µM
- TGI [57]: 28.7 µM
- GI50 [58]: 0.441 µM
- TGI [58]: 12.2 µM
